# Assay results: publication PMC3026800, “Mechanism of Inhibition of Enveloped Virus Membrane Fusion by the Antiviral Drug Arbidol” (PLoS ONE, 2011)
# Where “and” joins values, the source holds several entries; their conditions need not be identical. Identical values can stand only once. Like-named read-outs stand apart in the source and are kept apart here.
# Key:
# [1] = Free Arb in Arb∶DMPC mixture by ultrafiltration; format: physicochemical; conditions: Arb∶DMPC molar ratio 1∶4, neutral pH, ultrafiltration cutoff 5000 Da
# [2] = biological target: T1, HCV NS4A[1–22]* transmembrane peptide (Hepatitis C virus genotype 1a, UniProt P27958); test: Trp fluorescence quenching of peptide in PC:chol liposomes; format: binding; conditions: peptide in PC∶chol liposomes (1∶20)
# T1 construct: HCV NS4A[1–22]* transmembrane peptide […]
# Method: (§1) Measurements were recorded on a Tecan Infinite® M1000 spectrofluorimeter.
# [3] = Surface plasmon resonance binding to immobilized DMPC liposomes (L1 chip)
# Method: The running buffer was milliQ water. The influence of liposome concentrations on the final SPR signal was tested; we assayed lipid concentrations from 0.5 to 5 mM and measured the resulting resonance units (RU). […] We therefore chose the 2 mM concentration for our experiments. DMPC liposomes were resuspended in milliQ water and captured on sensor chip at 2 µl/min for 5 min. The flow rate was increased to 30 µl/min and the liposome surface was then washed with 10 mM NaOH for 1 min. Liposomes immobilized on the chip surface gave approx. a 5000 RU signal. […] After each binding cycle, the sensor surface was regenerated to the original matrix by injecting 50 mM NaOH/isopropanol (6∶4, v∶v). The sensor surface was then coated with a fresh liposome suspension for the next binding cycle. KD values were calculated from the equilibrium resonance signal (Req) as a function of the analyte concentration. Req values were estimated by extrapolation to infinite time using plots of resonance signal as a function of the reciprocal of time. Apparent KD were then calculated by nonlinear fitting to the expression Req = RmaxC/(KD+C), where Rmax is the maximum binding capacity of the surface and C is the analyte concentration, using the SigmaPlot software.
# [4] = Indole fluorescence quenching of tryptophan derivative in solution; format: binding; conditions: NATA in solution
# Method: as §1
# [5] = cited from earlier work
# [6] = biological target: Trp residues of model membrane-binding peptides (HCV NS4A and BVDV NS5A); test: Trp fluorescence quenching, model membrane peptides taken together; conditions: HCV NS4A and BVDV NS5A peptides in PC∶chol liposomes, both pH, summary; read-out: Apparent KD toward peptide Trp
# Method: as §1
# HCVpp [7] = test: microbe, parasite or virus in culture; format: cell-based, hepatitis C virus; conditions: for inhibition at 11.3 µM: Hepatitis C virus, Huh-7, 6 h, read-out: Inhibition of HCVpp cell entry; for Effect on HCVpp cell entry: 11.3 µM Arb, 6 h, Huh-7 cells
# HCVpp [8] = test: Membrane fusion assay: lipid mixing between pseudoparticles and R18-labeled liposomes; conditions: pH 5.0
# Method: Lipid mixing between pseudoparticles and PC∶chol∶R18 liposomes was monitored by fluorescent spectroscopy, as the dequenching of R18 [18]. In brief, R18-labeled liposomes (1 µl, 12.5 µM final lipid concentration) were added to a 37°C-thermostated cuvette containing pseudoparticles in PBS pH 7.4 [viral titers: H77 (1a) 5.10e^5; W529A-HC 10e^2; Con1 (1b) 4.10e^4; JFH1 (2a) 5.10e^4; AY734983 (2b) 8.10e^4; AY734984 (3a) 3.10e^4; AY734987 (4a) 9.10e^4; AY785283 (5a) 3.10e^4; AY736194 (6a) 5.10e^3; HA 8.10e^8; Rd114 2.10e^6], and incubated 2 min. Fusion was initiated by acidification to pH 5 with HCl, and recorded on an SLM Aminco 8000 spectrofluorimeter over a 10-min time period, at excitation and emission wavelengths of 560 nm and 590 nm, respectively. Maximal R18 dequenching was measured after the addition of 0.1% Triton X-100 (final concentration) to the cuvette to lyse liposomes.
# [9] = tested on: Rd114pp (envelope glycoprotein of the RD114 feline oncovirus); format: cell-based; conditions: 11.3 µM arbidol; control pseudoparticles
# Solubility of Arb = format: physicochemical
# [10] = Indole fluorescence quenching of tryptophan derivative in micelles or liposomes; format: binding
# Method: as §1
# E2[606–625] peptide = E2[606–625] peptide (Hepatitis C virus genotype 1a, UniProt P27958); test: Trp fluorescence quenching of fusion-related peptide in PC:chol liposomes; format: binding, HCV strain H (genotype 1a); conditions: peptide in PC∶chol liposomes (1∶20)
# Method: as §1
# E2[415–432] peptide = E2[415–432] peptide (Hepatitis C virus genotype 1a, UniProt P27958); test: as above; format: binding, HCV strain H (genotype 1a); conditions: peptide in PC∶chol liposomes (1∶20)
# Method: as §1
smiles,measurement,setting,value
"CCOC(=O)c1c(CSc2ccccc2)n(C)c2cc(Br)c(O)c(CN(C)C)c12.Cl [Arb, 1H-indole-3-carboxylic acid, 6-bromo-4-[(dimethylamino)-methyl]-5-hydroxy-1-methyl-2-[(phenylthio)methyl]-, ethyl ester, monohydrochloride]",Free Arb,[1],< 0.2%
same,Kd,[2]; pH 5.0,5.6 ± 0.3 µM
same,Kd,[2]; pH 7.4,3.3 ± 0.6 µM
same,Arb remaining bound to DMPC after dissociation,[3]; all Arb concentrations tested (0.5 to 11.3 µM),about 50%
same,Kd,"[3]; read-out: Apparent KD for DMPC, SPR, 30°C, water, Req extrapolated to infinite time, 4 separate experiments",6.8 ± 0.4 µM
same,Kd,[4]; pH 5.0,55 ± 10 µM
same,Kd,[4]; pH 7.4,64 ± 10 µM
same,Toxicity,[5],low toxicity
same,Kd,[6],~4 µM
same,inhibition at 11.3 µM,HCVpp [7]; genotype 1a,40%
same,inhibition at 11.3 µM,HCVpp [7]; genotype 1b,40%
same,inhibition at 11.3 µM,HCVpp [7]; genotype 2a,~60%
same,inhibition at 11.3 µM,HCVpp [7]; genotype 2b,40%
same,inhibition at 11.3 µM,HCVpp [7]; genotype 3a,~60%
same,Effect on HCVpp cell entry,HCVpp [7]; genotype 5a,weakly affected
same,Effect on HCVpp cell entry,HCVpp [7]; genotype 6a,weakly affected
same,Inhibition of membrane fusion activity,"HCVpp [8]; all tested genotypes, 11.3 µM Arb",about 50%
same,IC50,"HCVpp [8]; read-out: IC50 of HCVpp fusion, lipid mixing with R18 liposomes",11.3 µM and ~10 µM
same,Sensitivity of pseudoparticle entry to arbidol,[9],insensitive
same,Solubility,Solubility of Arb; ethanol,readily soluble
same,Solubility,Solubility of Arb; water,soluble in the mM range
same,Kd,"[10]; TOE associated to liposomes (1∶20), summary, read-out: KD (apparent affinity)",~10 µM
same,Kd,"[10]; TOE in PC liposomes (1∶20), pH 5.0, read-out: KD",9.2 ± 0.2 µM
same,Kd,"[10]; TOE in PC liposomes (1∶20), pH 7.4, read-out: KD",6 ± 0.5 µM
same,Kd,"[10]; TOE in PC∶chol liposomes (1∶20), pH 5.0, read-out: KD",15.6 ± 1.3 µM
same,Kd,"[10]; TOE in PC∶chol liposomes (1∶20), pH 7.4, read-out: KD",11.7 ± 1.4 µM
same,Kd,"[10]; TOE in lyso-PC micelles (1∶800), pH 5.0, read-out: KD",48 ± 4 µM
same,Kd,"[10]; TOE in lyso-PC micelles (1∶800), pH 7.4, read-out: KD",58 ± 9 µM
same,Kd,E2[606–625] peptide; pH 5.0,70 ± 10 µM
same,Kd,E2[606–625] peptide; pH 7.4,13 ± 3 µM
same,Kd,E2[415–432] peptide; pH 5.0,28 ± 7 µM
same,Kd,E2[415–432] peptide; pH 7.4,~15 µM and 15 µM
